Measured values published in ChEMBL document CHEMBL3885861, “Open TG-GATES”.

Organism: Rattus norvegicus
Assay: Open TG-GATES - Regimen: Daily Repeat
Assay type: toxicity, organism-based, Sprague-Dawley
Design: regimen Daily Repeat, gender Male, age 6 weeks
Conditions: in vivo, po, route gavage; for APTT / Bas / Eos / Fbg / Hb / Ht / Lym / MCH / MCHC / MCV / Mono / PT / Plat / RBC / Ret / WBC / Neu: tissue Blood; for ALP / ALT / BUN / CRE / DBIL / GLC / IP / K / LDH / Na / PL / RALB / TBIL / TC / TG / TP / gamma-GTP: tissue Plasma
[1] = 0 mg/kg, 72 h, dose level Control, time 3 day
[2] = 0 mg/kg, […], dose level Control, time 7 day
[3] = 0 mg/kg, […], dose level Control, time 14 day
[4] = 0 mg/kg, […], dose level Control, time 28 day
[5] = 60 mg/kg, 72 h, dose level Low, time 3 day
[6] = 60 mg/kg, […], dose level Low, time 7 day
[7] = 60 mg/kg, […], dose level Low, time 14 day
[8] = 60 mg/kg, […], dose level Low, time 28 day

CCN(CC)C(=S)SSC(=S)N(CC)CC
TERMINAL_BW [1]: 228.6 g
APTT [1]: 22.7 s
Bas [1]: 0%
Eos [1]: 0.8%
Fbg [1]: 295 mg/dL
Hb [1]: 12.5 g/dL
Ht [1]: 38.7%
Lym [1]: 81.8%
MCH [1]: 20.5 pg
MCHC [1]: 32.2%
MCV [1]: 63.6 fL
Mono [1]: 2.4%
PT [1]: 16.3 s
Plat [1]: 112 x10_4/uL
RBC [1]: 609 x10_4/ul
Ret [1]: 7%
WBC [1]: 78.4 x10_2/uL
ALP [1]: 1421 IU/L
ALT [1]: 42.6 IU/L
BUN [1]: 17.6 mg/dL
CRE [1]: 0.2 mg/dL
DBIL [1]: 0 mg/dL
GLC [1]: 192.2 mg/dL
IP [1]: 7.8 mg/dL
K [1]: 4.2 meq/L
LDH [1]: 190.4 IU/L
Na [1]: 142.6 meq/L
PL [1]: 136.8 mg/dL
RALB [1]: 3.1 g/dL
TBIL [1]: 0.002 mg/dL
TC [1]: 73.4 mg/dL
TG [1]: 91.6 mg/dL
TP [1]: 5.5 g/dL
gamma-GTP [1]: 1.4 IU/L
TERMINAL_BW [2]: 265.7 g
TERMINAL_BW [3]: 313.3 g
TERMINAL_BW [4]: 364.4 g
APTT [2]: 22.1 s
Bas [2]: 0%
Eos [2]: 0.8%
Fbg [2]: 315 mg/dL
Hb [2]: 12.8 g/dL
Ht [2]: 39.2%
Lym [2]: 82%
MCH [2]: 20.3 pg
MCHC [2]: 32.6%
MCV [2]: 62.3 fL
Mono [2]: 2.8%
PT [2]: 16.4 s
Plat [2]: 116.8 x10_4/uL
RBC [2]: 629 x10_4/ul
Ret [2]: 6.3%
WBC [2]: 134.5 x10_2/uL
APTT [3]: 23.7 s
Bas [3]: 0%
Eos [3]: 1%
Fbg [3]: 311.2 mg/dL
Hb [3]: 13.9 g/dL
Ht [3]: 41.2%
Lym [3]: 82.4%
MCH [3]: 20.1 pg
MCHC [3]: 33.9%
MCV [3]: 59.4 fL
Mono [3]: 2%
Neu [3]: 13.4%
PT [3]: 16.3 s
Plat [3]: 112 x10_4/uL
RBC [3]: 693.4 x10_4/ul
Ret [3]: 4.9%
WBC [3]: 133.7 x10_2/uL
APTT [4]: 24.8 s
Bas [4]: 0%
Eos [4]: 1.2%
Fbg [4]: 321.4 mg/dL
Hb [4]: 15.2 g/dL
Ht [4]: 44.8%
Lym [4]: 83.2%
MCH [4]: 19.5 pg
MCHC [4]: 34%
MCV [4]: 57.5 fL
Mono [4]: 2.2%
Neu [4]: 12.2%
PT [4]: 16.6 s
Plat [4]: 98.2 x10_4/uL
RBC [4]: 780.6 x10_4/ul
Ret [4]: 2.8%
WBC [4]: 121 x10_2/uL
ALP [2]: 1448.6 IU/L
ALT [2]: 43.6 IU/L
BUN [2]: 17.4 mg/dL
CRE [2]: 0.2 mg/dL
DBIL [2]: 0 mg/dL
GLC [2]: 203.8 mg/dL
IP [2]: 7.9 mg/dL
K [2]: 4.5 meq/L
LDH [2]: 223 IU/L
Na [2]: 142 meq/L
PL [2]: 138.4 mg/dL
RALB [2]: 3.1 g/dL
TBIL [2]: 0.008 mg/dL
TC [2]: 71.4 mg/dL
TG [2]: 106.6 mg/dL
TP [2]: 5.5 g/dL
gamma-GTP [2]: 2.2 IU/L
ALP [3]: 1430.8 IU/L
ALT [3]: 45 IU/L
BUN [3]: 20.8 mg/dL
CRE [3]: 0.2 mg/dL
DBIL [3]: 0 mg/dL
GLC [3]: 204.2 mg/dL
IP [3]: 7.4 mg/dL
K [3]: 4.4 meq/L
LDH [3]: 167 IU/L
Na [3]: 141.2 meq/L
PL [3]: 143 mg/dL
RALB [3]: 3.2 g/dL
TBIL [3]: 0 mg/dL
TC [3]: 73.6 mg/dL
TG [3]: 91.4 mg/dL
TP [3]: 5.8 g/dL
gamma-GTP [3]: 2.6 IU/L
ALP [4]: 1127.4 IU/L
ALT [4]: 35 IU/L
BUN [4]: 18.4 mg/dL
CRE [4]: 0.2 mg/dL
DBIL [4]: 0 mg/dL
GLC [4]: 202.8 mg/dL
IP [4]: 6.8 mg/dL
K [4]: 4 meq/L
LDH [4]: 154.8 IU/L
Na [4]: 143.2 meq/L
PL [4]: 145 mg/dL
RALB [4]: 3.2 g/dL
TBIL [4]: 0.014 mg/dL
TC [4]: 76 mg/dL
TG [4]: 113.4 mg/dL
TP [4]: 6 g/dL
gamma-GTP [4]: 2.6 IU/L
TERMINAL_BW [5]: 224.7 g
APTT [5]: 21.1 s
Bas [5]: 0%
Eos [5]: 0.6%
Fbg [5]: 308.2 mg/dL
Hb [5]: 12.3 g/dL
Ht [5]: 38.1%
MCH [5]: 19.7 pg
MCHC [5]: 32.2%
MCV [5]: 61.2 fL
Mono [5]: 2.2%
PT [5]: 15.9 s
Plat [5]: 113.7 x10_4/uL
RBC [5]: 624.4 x10_4/ul
Ret [5]: 4.6%
WBC [5]: 88.7 x10_2/uL
ALP [5]: 1308.8 IU/L
ALT [5]: 45.4 IU/L
BUN [5]: 17.8 mg/dL
CRE [5]: 0.2 mg/dL
DBIL [5]: 0 mg/dL
GLC [5]: 178.8 mg/dL
IP [5]: 7 mg/dL
K [5]: 4.1 meq/L
LDH [5]: 188 IU/L
Na [5]: 143.6 meq/L
PL [5]: 151.6 mg/dL
RALB [5]: 3.1 g/dL
TBIL [5]: 0.004 mg/dL
TC [5]: 86.2 mg/dL
TG [5]: 83 mg/dL
TP [5]: 5.5 g/dL
gamma-GTP [5]: 1.6 IU/L
TERMINAL_BW [6]: 255.2 g
TERMINAL_BW [7]: 296.1 g
TERMINAL_BW [8]: 358.2 g
APTT [6]: 21.7 s
Bas [6]: 0%
Eos [6]: 0.6%
Fbg [6]: 312.8 mg/dL
Hb [6]: 12.4 g/dL
Ht [6]: 38.4%
MCH [6]: 20.1 pg
MCHC [6]: 32.3%
MCV [6]: 62.1 fL
Mono [6]: 2.4%
PT [6]: 16 s
Plat [6]: 129.8 x10_4/uL
RBC [6]: 620.4 x10_4/ul
Ret [6]: 7.5%
WBC [6]: 137.8 x10_2/uL
APTT [7]: 23.8 s
Bas [7]: 0%
Eos [7]: 1%
Fbg [7]: 319.4 mg/dL
Hb [7]: 13.9 g/dL
Ht [7]: 40.9%
MCH [7]: 19.7 pg
MCHC [7]: 33.8%
MCV [7]: 58.2 fL
Mono [7]: 2.8%
PT [7]: 16.1 s
Plat [7]: 124.6 x10_4/uL
RBC [7]: 704.6 x10_4/ul
Ret [7]: 5.1%
WBC [7]: 126 x10_2/uL
APTT [8]: 24 s
Bas [8]: 0%
Eos [8]: 1%
Fbg [8]: 329.2 mg/dL
Hb [8]: 14.2 g/dL
Ht [8]: 41.1%
MCH [8]: 19.2 pg
MCHC [8]: 34.7%
MCV [8]: 55.4 fL
Mono [8]: 2.2%
PT [8]: 16.5 s
Plat [8]: 108.8 x10_4/uL
RBC [8]: 742.2 x10_4/ul
Ret [8]: 3.3%
WBC [8]: 116.8 x10_2/uL
ALP [6]: 991.6 IU/L
ALT [6]: 37.4 IU/L
BUN [6]: 16.8 mg/dL
CRE [6]: 0.2 mg/dL
DBIL [6]: 0 mg/dL
GLC [6]: 183 mg/dL
IP [6]: 7 mg/dL
K [6]: 4.4 meq/L
LDH [6]: 217.8 IU/L
Na [6]: 143.6 meq/L
PL [6]: 142.4 mg/dL
RALB [6]: 3 g/dL
TBIL [6]: 0.012 mg/dL
TC [6]: 78.4 mg/dL
TG [6]: 64.2 mg/dL
TP [6]: 5.5 g/dL
gamma-GTP [6]: 1.8 IU/L
ALP [7]: 1244.8 IU/L
ALT [7]: 37.6 IU/L
BUN [7]: 18.6 mg/dL
CRE [7]: 0.2 mg/dL
DBIL [7]: 0 mg/dL
GLC [7]: 178 mg/dL
IP [7]: 6.2 mg/dL
K [7]: 4.1 meq/L
LDH [7]: 146.8 IU/L
Na [7]: 142 meq/L
PL [7]: 165.2 mg/dL
RALB [7]: 3.2 g/dL
TBIL [7]: 0.004 mg/dL
TC [7]: 92.4 mg/dL
TG [7]: 70.6 mg/dL
TP [7]: 5.9 g/dL
gamma-GTP [7]: 2.8 IU/L
ALP [8]: 808.4 IU/L
ALT [8]: 36 IU/L
CRE [8]: 0.2 mg/dL
DBIL [8]: 0 mg/dL
GLC [8]: 183.4 mg/dL
IP [8]: 5.8 mg/dL
K [8]: 4 meq/L
LDH [8]: 106.2 IU/L
Na [8]: 142.4 meq/L
PL [8]: 150.2 mg/dL
RALB [8]: 3 g/dL
TBIL [8]: 0.018 mg/dL
TC [8]: 87.2 mg/dL
